For experiment [1] the following is noted: cited from earlier work.
The conditions of experiment [2]: intrathecal administration of morphine; cited from earlier work.
For experiment [3] the following is noted: 10 mg/70 kg body weight; cited from earlier work.
The conditions of experiment [4]: oral, antitussive doses, cited from earlier work; for DOSE (figures in parentheses): not necessarily equieffective.
The subject of experiment [5] is Adult male Sprague-Dawley rats. Kind of experiment: Tail-flick analgesic testing after intrathecal administration. It is filed as in vivo, rat.
In experiment [6] the test system is rats with spinal cord transection. In words: Tail-flick analgesic testing after intrathecal administration, acutely transected spinal cord. The format is in vivo, rat. The conditions noted are these: 0.2 ug MS alone.
Where [7] appears, read: analgesic effects after subcutaneous administration.

Where two headings read alike, the source gives them in different places.

Data on 17 compounds can be found in US5891842A, “Methodology for eliciting an analgesic response in a living subject” (priority 1996, dated 1999).

Turning to `CCOC(=O)C1(c2ccccc2)CCN(C)CC1` [Meperidine], in experiment [1] (setting [7]), the “DURATION OF ACTION” value was 2 to 4 h. The “DOSE: amount given subcutaneously that produces approximately the same analgesic effects as 10 mg of morphine” value (“DOSE … of morphine” for short) in experiment [1] (in vivo, sc) is given as 75-100.

As to `COc1ccc2c3c1O[C@H]1[C@@H](O)CC[C@H]4[C@@H](C2)N(C)CC[C@@]341` [Drocode, dihydrocodeine], the “DURATION OF ACTION” value in experiment [1] (setting [7]) was 4 to 5 h. For the same compound, in experiment [1] (in vivo, sc), the “DOSE … of morphine” value was 60.

Turning to `CN1CC[C@]23c4c5ccc(O)c4O[C@H]2[C@@H](O)C=C[C@H]3[C@H]1C5` [Morphine], in experiment [1] (in vivo, sc), the “DOSE … of morphine” value was 10 and the “DURATION OF ACTION” value was 4-5. The “effect on hyperalgesia of administered substance P” value in experiment [2] was “blocks the hyperalgesic effects”. The “relieves post-operative pain satisfactorily (share of patients)” value in experiment [3] is “about two-thirds”.

`CCC(=O)C(CC(C)N1CCCCC1)(c1ccccc1)c1ccccc1` (stereo not shown) [Dipipanone]: the “DURATION OF ACTION” value in experiment [1] (setting [7]) is 4 to 5 h. Further, in experiment [1] (in vivo, sc), the “DOSE … of morphine” value is given as 20-25.

`COc1ccc2c3c1O[C@H]1[C@@H](O)C=C[C@H]4[C@@H](C2)N(C)CC[C@@]341` [Codeine]: the “DOSE … of morphine” value in experiment [1] (in vivo, sc) is on record as 120. Moreover, in experiment [4], the “DURATION OF ACTION (figures in parentheses)” value is 4 to 6 h and the “DOSE (figures in parentheses)” value is 10 to 20 mg.

As to `C=CCN1CC[C@]23c4c5ccc(O)c4O[C@H]2C(=O)CC[C@@]3(O)[C@H]1C5` [naloxone], the “analgesic response produced by MS in combination with SP after naloxone pretreatment” value in experiment [5] (naloxone 1.0 ug intrathecal 10 min prior to 0.1 ug MS + 10 pmol SP) is reported as “essentially eliminated”.

Turning to `CCC(=O)C(CC(C)N(C)C)(c1ccccc1)c1ccccc1` (stereo not shown) [Methadone], the “DURATION OF ACTION” value in experiment [1] (setting [7]) is 3 to 5 h. For the same compound, the “DOSE … of morphine” value in experiment [1] (in vivo, sc) was 8-10.

Regarding `CN1CC[C@]23c4c5ccc(O)c4O[C@H]2[C@@H](O)C=C[C@H]3[C@H]1C5.O=S(=O)(O)O` [MS, morphine sulphate], the analgesic response entry in experiment [5] (0.02 ug MS alone, intrathecal) is “weak response”; in experiment [5] (0.5 ug MS alone, intrathecal), “maximal analgesic response between 5 and 30 min”; in experiment [6], “modest analgesic response”. For the same compound, the “analgesic response, peak” value in experiment [5] (0.1 ug MS alone, intrathecal) is listed as “approximately 30 % MPE”. This compound gave a declined to baseline in experiment [5] (0.5 ug MS alone, intrathecal) of 60 min.

Take `CC(=O)Oc1ccc2c3c1O[C@H]1[C@@H](OC(C)=O)C=C[C@H]4[C@@H](C2)N(C)CC[C@@]341` [Heroin, diacetylmorphine]: the “DURATION OF ACTION” value in experiment [1] (setting [7]) was 3 to 4 h. For the same compound, the “DOSE … of morphine” value in experiment [1] (in vivo, sc) is 4. Besides, in experiment [4], the “DOSE (figures in parentheses)” value was 2 to 8 mg.

As for `CN1CC[C@]23c4c5ccc(OCCN6CCOCC6)c4O[C@H]2[C@@H](O)C=C[C@H]3[C@H]1C5` [Pholcodine, β-morpholinylethylmorphine], in experiment [4], the “DURATION OF ACTION (figures in parentheses)” value was 4 to 5 h and the “DOSE (figures in parentheses)” value is 5 to 15 mg.

With `CN1CC[C@]23CCCC[C@H]2[C@H]1Cc1ccc(O)cc13` [Levorphanol], the “DURATION OF ACTION” value in experiment [1] (setting [7]) was 4 to 5 h. Moreover, the “DOSE … of morphine” value in experiment [1] (in vivo, sc) is listed as 2.

As to `C[C@H](CN1CCOCC1)C(C(=O)N1CCCC1)(c1ccccc1)c1ccccc1` [Dextromoramide], the “DURATION OF ACTION” value in experiment [1] (setting [7]) was 4 to 5 h. Besides, the “DOSE … of morphine” value in experiment [1] (in vivo, sc) is reported as 5-7.5.

For the compound `COc1ccc2c3c1O[C@H]1C(=O)CC[C@H]4[C@@H](C2)N(C)CC[C@]314` [Hyrocodone, dihydrocodeinone], in experiment [4], the “DURATION OF ACTION (figures in parentheses)” value is 4 to 8 h and the “DOSE (figures in parentheses)” value was 5 to 10 mg.

As to `CCC(=O)OC1(c2ccccc2)CCN(C)CC1C` (stereo not shown) [Alphaaprodine, Alphaprodine], the “DURATION OF ACTION” value in experiment [1] (setting [7]) is 1 to 2 h. Further, in experiment [1] (in vivo, sc), the “DOSE … of morphine” value is on record as 40.

Turning to `CCC(=O)C(CC(C)N1CCOCC1)(c1ccccc1)c1ccccc1` (stereo not shown) [Phenadoxone], the “DURATION OF ACTION” value in experiment [1] (setting [7]) is 1 to 3 h. Besides, the “DOSE … of morphine” value in experiment [1] (in vivo, sc) was 10-20.

As for `CN1CC[C@]23c4c5ccc(O)c4O[C@H]2C(=O)CC[C@@]3(O)[C@H]1C5` [Oxymorphone, dihydrohydroxymorphinone], the “DURATION OF ACTION” value in experiment [1] (setting [7]) is 4 to 5 h. Also, the “DOSE … of morphine” value in experiment [1] (in vivo, sc) is 1.0-1.5.

For the compound `COc1ccc2c3c1O[C@H]1C(=O)CC[C@@]4(O)[C@@H](C2)N(C)CC[C@]314` [Oxycodone, dihydrohydroxycodeinone], the “DURATION OF ACTION” value in experiment [1] (setting [7]) was 4 to 5 h. Besides, the “DOSE … of morphine” value in experiment [1] (in vivo, sc) is 10-15.
